Series [1] relates to K562 cells. Put plainly: Cell cycle analysis (PI staining, flow cytometry). The class given is cell-based, human. As to conditions: 24 h. As to the method:
To further explore the antitumor properties of 6o, the effect of 6o on cell cycle distribution was evaluated. PI staining was used to perform cell cycle analysis.
To analyze the cell cycle, a PI apoptosis detection kit (Solarbio, Wuhan, China) was utilized. After K562 cells were seeded in 6-well plates for 24 h, compound 6o (10, 12 and 14 μM) or positive control was added to the plates for another 24 h. Then, cells were washed three times with PBS, and fixed with 70% ethanol at 4°C for overnight. After fixed, cells were again washed with PBS and incubated at 37 °C with 100 μL RNase A for 30 min. After this, cells were incubated with 400 μL PI for 30 min at 4 °C. After staining, cells were subjected to Flow Cytometry using Cell Quest software (BD, SN: E34297502014) and the PI fluorescence was recorded in the FL2 channel. Data were analyzed using FlowJo V10.

A further series has as its system HEK-293 cells. Put plainly: MTT cytotoxicity to normal cells, HEK-293. The class given is cell-based, human. The conditions noted are these: IC50 in HEK-293 divided by IC50 in K562. As to the method: (§1) The antiproliferative activity of the target indazole derivatives was evaluated against a panel of human cancer cell lines (human chronic myeloid leukemia cell lines K562; human lung cancer cell lines A549; human prostate cancer cell lines PC-3; human hepatoma cell lines HepG-2) in vitro, and human embryonic kidney cell lines HEK-293 were used to evaluate the cytotoxicity of a normal cell with high activity derivatives by MTT assay. Moreover, 5-fluorouracil (5-Fu), a broad-spectrum drug antitumor drug with therapeutic effects on various cancers, was used as a positive control.
(§2) To investigate the anticancer activity of indazole derivatives, A549, K562, PC3, and Hep-G2 cells were treated with targets compounds respectively for 48 h in a range of concentrations (from 0.625 to 10 μM) and subjected to a proliferation assay using the MTT assay. Exponentially growing cells were seeded at a density of 5000 cells per well in 96-well plates containing 100 μL of fresh growth medium. After allowing the cells to attach for 24 h, target compounds were added. After incubation for 48 h, viable cells were stained with MTT (0.5 mg/mL) for 4 h, and the produced formazan crystals were dissolved with 150 µL of dimethyl sulfoxide. Absorbance was measured at 490 nm using an automated microplate reader (Tecan, Infinite M200 Pro, Männedorf, Switzerland). The relative cell viability was calculated according to the following equation: Cell viability%=experimental OD value/control OD value×100%Cell inhibition%=control OD value−experimental OD value/control OD value×100%
(§3) Cell inhibition%=control OD value−experimental OD value/control OD value×100%

Series [2] in a line: MTT cytotoxicity to normal cells, HEK-293. The conditions noted are these: human, HEK-293 cells (normal human embryonic kidney cells); normal cell HEK-293; MTT; read-out: IC50 ± SD, HEK-293. The series is classed as cell-based, human. The protocol: as §1, §2, §3
The subject of series [3] is K562 cells. Put plainly: MTT anti-proliferative assay, K562. The series is classed as cell-based. The conditions noted are these: Homo sapiens. The protocol:
as §1
(§4) Lung (A549), chronic myeloid leukemia (K562), prostate (PC3), and live (Hep-G2) cells were purchased from the Cell Bank of the Chinese Academy of Sciences (Kunming, China). A549, K562, and PC-3 cells were cultured in RPMI-1640 medium and the liver cells Hep-G2 were cultured in MEM medium. All mediums were supplemented with 10% FBS, 100 μg/mL penicillin and 100 μg/mL streptomycin. All cells were cultivated in a 5% CO2 incubator at 37 °C.
as §2, §3
A general note: Tetrazolium assays rely on reduction of a dye to a coloured formazan, in cell work by metabolically active cells.

The next series relates to PC-3 cells. Put plainly: MTT anti-proliferative assay, PC-3. The class given is cell-based. As to conditions: Homo sapiens, PC-3, 48 h, Table 2, read-out: IC50 ± SD, PC-3. As to the method:
as §1, §4
as §2, with “Exponentially” for “To investigate the anticancer activity of indazole derivatives, A549, K562, PC3, and Hep-G2 cells were treated with targets compounds respectively for 48 h in a range of concentrations (from 0.625 to 10 μM) and subjected to a proliferation assay using the MTT assay. Exponentially”
as §3

The subject of the next series is A549 cells. Put plainly: MTT anti-proliferative assay, A549. The series is classed as cell-based. As to conditions: Homo sapiens, Table 2, 48 h, read-out: IC50 ± SD, A549. The protocol:
as §1, §4, §2, §3

Series [4] deals with p53 and MDM2 expression in K562 cells. Put plainly: Western blotting of p53 and MDM2. The conditions noted are these: K562, 48 h. The series is classed as cell-based, human. As to the method:
Loss of p53 activity by deletion, mutation, or MDM2 over-expression, is the most common event in the development and progression of cancer. To confirm the ability of 6o to inhibit the p53 and MDM2 interaction in K562, the expression levels of these two proteins were evaluated by Western blotting assay after 48 h of 6o treatment. […] In summary, 6o could change the expression of p53 and MDM2, disrupting the balance of intracellular p53 protein levels, and eventually inducing apoptosis of K562.
(§5) K562 cells were treated with compound 6o for 48 h, then, lysed in 1×RIPA lysis buffer (Solarbio) with proteinase (Solarbio) and phosphatase inhibitors (Solarbio) for 15 min on ice (proteinase: phosphatase inhibitors: 1 × RIPA lysis buffer = 1:1:100), scraped off from the plate and prepared cell lysates. These lysates were centrifuged at 1.2 × 10^4 rpm at 4 °C for 15 min to collect the supernatants and the protein concentration of each sample was quantified by the BCA protein assay kit (Beyotime, Shanghai, China). Protein was separated by SDS-PAGE and then transferred onto the PVDF membrane. […]

Series [5] has as its system K562 cells. The series can be described thus: Annexin V-FITC/PI cell apoptosis detection assay (flow cytometry). As to conditions: 48 h. The class given is cell-based, human. The protocol:
(§6) To quantify the effects of 6o on K562 cell apoptosis, K562 cells were treated with different concentrations of the compound 6o and followed by Annexin V-FITC/PI detection assay.
Activation of tumor cell apoptosis plays an important role in treatment cancer. To investigate whether apoptosis could underlie the anticancer activity of 6o, K562 cells were treated with 6o (0, 10, 12 or 14 μM) for 48 h and the percentage of apoptosis was determined by flow cytometry, Annexin V-FITC/PI Apoptosis Detection Kit (BD, Franklin Lakes, NJ, USA) was used. Cells (1 × 10^6/mL per well) were plated in 6-well culture plates and grown for 24 h. After treatment with compound 6o for 48 h, the collected cells were washed two times with ice-cold PBS, counted, and 100 μL of cell suspension with a density of 1 × 10^6 cells/mL was prepared, then incubated with 5 μL Annexin V-FITC and 5 μL Propidium iodide (PI) in the dark for 15 min. After 15 min of incubation and added 400 μL of 1 × binding buffer, and use Cell Quest software (BD, SN: E34297502014) to perform detection on Flow Cytometry (BD, Franklin Lakes, NJ, USA). Data were analyzed using FlowJo V10.
For orientation: A flow cytometer gives signals particle by particle.

In series [6] the test system is Bax and Bcl-2 expression in K562 cells. The series can be described thus: Western blotting of apoptosis-related proteins Bax and Bcl-2. The series is classed as cell-based, human. The conditions noted are these: K562, 48 h. As to the method:
as §6
as §5, with “membrane. After blocking with 5% skim milk for 2 h, befitting primary antibodies include Bax (Proteintech; Type: Rabbit; Cat No.: 50599-2-lg); Bcl-2 (Proteintech; Type: Mouse; Cat No.: 60178-1-lg); GAPDH (Proteintech; Type: Mouse; Cat No.: 60004-1-lg); β-actin (Proteintech; Type: Rabbit; Cat No.: 81115-1-RR); P53 (Cell signaling; Type: Rabbit; Cat No.: #2527) and MDM2 (Cell signaling; Type: Rabbit; Cat No.: #86934) were sealed in Antibody Dilution Buffer, and cocultivated with the PDF membrane at 4 °C for overnight.” for “membrane.”
In general terms: Immunoblotting shows a protein as a band on a membrane.

In another series the test system is Hep-G2 cells. Put plainly: MTT anti-proliferative assay, Hep-G2. The series is classed as cell-based. The conditions noted are these: Homo sapiens, HepG2, 48 h, Table 2, 48 h, read-out: IC50 ± SD, Hep-G2. As to the method:
as §1, §4, §2, §3

“Also recorded” adds a separate entry of the source. Read-outs that look alike come from different tables or passages of the source.

Molecule `O=C(CN1CCN(c2ccc(C(F)(F)F)cc2)CC1)Nc1n[nH]c2ccc(-c3ccc(Cl)c(F)c3)cc12` [compound 6o] yielded a melting point of 183 to 185 °C. The molecule also gave a G0/G1 population in the series with K562 cells [1] (K562, 10 μM) of 31.8%. Moreover, in the series on K562 cells [1] (K562, 12 μM), the G0/G1 population worked out at 36.4%. Moreover, in the series on K562 cells [1] (K562, 14 μM), the G0/G1 population worked out at 41.1%. The “proportion of S phase cells” value in the series on K562 cells [1] (K562, 10, 12 and 14 μM, vs negative control) is listed as “decreased significantly”. The “Selectivity index (SI) for K562 cells” value in the series on HEK-293 cells is on record as 6.45. Also, the IC50 at 48 h in [2] was determined as 33.2 ± 3.83 µM. The IC50 in the series on K562 cells [3] (Table 2, 48 h, read-out: IC50 ± SD, K562) was 5.15 ± 0.55 µM. The IC50 in the series on K562 cells [3] (Table 3, read-out: IC50 ± SD, K562) turned out to be 5.15 ± 0.55 µM. In addition, the IC50 with PC-3 cells was 8.34 ± 1.55 µM. Besides, the IC50 with A549 cells came to 6.73 ± 1.03 µM. Besides, in series [4], the “expression level of p53 protein” value is reported as “up-regulate” and the “expression of MDM2 protein” value is listed as “reduce”. Moreover, the “total apoptosis rate (early and late apoptosis)” value (shortened to “total apoptosis rate”) in the series with K562 cells [5] (K562, 10 μM) was 9.64%. In addition, in the series with K562 cells [5] (K562, 12 μM), the “total apoptosis rate” value amounted to 16.59%. Further, in the series on K562 cells [5] (K562, 14 μM), the “total apoptosis rate” value is on record as 37.72%. Moreover, in series [6], the “expression of Bax (pro-apoptotic protein)” value is “increase” and the “expression of Bcl-2 (apoptosis-inhibiting protein)” value is reported as “decreased; also recorded: reduce”. In addition, in the series with Hep-G2 cells, the IC50 worked out at 7.37 ± 0.24 µM.

By IC50 is commonly meant the concentration that gives 50% inhibition. What is called melting point is the temperature, or range, at which the solid turns liquid.

Values taken from PMC10218234, “Design, Synthesis and Antitumor Activity of 1H-indazole-3-amine Derivatives” (International Journal of Molecular Sciences, 2023).
